ChEMBL document CHEMBL4020734, “Identification of a novel fluoropyrrole derivative as a potassium-competitive acid blocker with long duration of action” (Bioorg Med Chem, 2017)
Calls of active or inactive are those of the source. The calls are words filed in the database; no cut-off is given here.

Tests used:
[1] = Cytotoxicity against human HepG2 cells assessed as cellular ATP level at 30 uM after 1 day by ATPLite assay relative to control; format: cell-based; conditions: read-out: Activity
[2] = tested on: Rattus norvegicus; assay: Inhibition of histamine-induced acid secretion in Jcl:SD rat gastric at 1 mg/kg, iv pretreated for 3 mins followed by histamine.2HCl treatment measured after 3 hrs by titration method; format: functional
[3] = Inhibition of H+/K+-ATPase in porcine stomach gastric mucosal microsomes assessed as reduction in inorganic phosphate production using ATP as substrate preincubated for 30 mins followed by ATP addition in presence of KCl by malachite green reagent based colorimetric assay; set-up: species or system Sus scrofa
[4] = Dissociation constant, pKa of the compound; format: physicochemical
[5] = Lipophilicity, log D of the compound at pH 7.4 by HPLC analysis; format: physicochemical; conditions: buffer
[6] = target: hERG (KCNH2) (Homo sapiens, UniProt Q12809); assay: Inhibition of human ERG expressed in HEK cells at 10 uM at -75 mV holding potential by Whole-cell voltage clamp assay relative to control; format: cell-based; conditions: HEK cells expressing human ERG
Sequence of hERG (KCNH2) (Q12809 whole entry): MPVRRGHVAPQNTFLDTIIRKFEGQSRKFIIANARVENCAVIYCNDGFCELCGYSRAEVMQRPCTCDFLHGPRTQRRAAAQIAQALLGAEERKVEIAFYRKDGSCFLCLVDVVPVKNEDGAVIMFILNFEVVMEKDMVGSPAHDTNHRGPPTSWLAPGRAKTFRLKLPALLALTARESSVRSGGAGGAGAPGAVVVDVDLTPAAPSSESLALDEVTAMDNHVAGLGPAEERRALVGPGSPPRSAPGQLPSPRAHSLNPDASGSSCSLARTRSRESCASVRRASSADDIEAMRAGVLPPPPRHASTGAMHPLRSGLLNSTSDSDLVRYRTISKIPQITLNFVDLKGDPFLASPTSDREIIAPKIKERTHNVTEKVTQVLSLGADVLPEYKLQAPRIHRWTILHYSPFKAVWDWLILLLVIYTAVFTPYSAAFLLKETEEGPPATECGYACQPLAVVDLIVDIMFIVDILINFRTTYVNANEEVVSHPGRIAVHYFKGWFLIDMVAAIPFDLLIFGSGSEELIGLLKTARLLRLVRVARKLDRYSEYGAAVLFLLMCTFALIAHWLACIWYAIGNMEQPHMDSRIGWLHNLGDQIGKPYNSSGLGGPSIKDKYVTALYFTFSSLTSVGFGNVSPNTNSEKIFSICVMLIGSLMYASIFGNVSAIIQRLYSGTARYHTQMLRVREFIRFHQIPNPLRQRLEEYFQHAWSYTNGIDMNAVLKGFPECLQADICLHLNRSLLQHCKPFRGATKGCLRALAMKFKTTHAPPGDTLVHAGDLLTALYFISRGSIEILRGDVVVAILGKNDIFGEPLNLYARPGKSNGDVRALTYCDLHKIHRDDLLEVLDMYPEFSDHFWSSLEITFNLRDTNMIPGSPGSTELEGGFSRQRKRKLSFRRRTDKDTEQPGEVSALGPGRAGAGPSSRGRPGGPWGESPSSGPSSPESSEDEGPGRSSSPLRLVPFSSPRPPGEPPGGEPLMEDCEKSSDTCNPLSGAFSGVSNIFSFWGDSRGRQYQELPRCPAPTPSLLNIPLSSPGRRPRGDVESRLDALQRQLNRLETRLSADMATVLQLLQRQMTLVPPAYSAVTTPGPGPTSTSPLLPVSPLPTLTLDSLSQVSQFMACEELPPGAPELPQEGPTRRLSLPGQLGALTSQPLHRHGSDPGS

[7] = Cytotoxicity against human HepG2 cells assessed as cellular ATP level at 100 uM after 1 day by ATPLite assay relative to control; format: cell-based; conditions: read-out: Activity
[8] = tested on: Canis familiaris; assay: Inhibition of histamine-induced acid secretion in dog heidenhain pouch at 3 mg/kg, po treated 1 day after and 1 to 48 hrs before histamine.2HCl treatment measured 30 mins post histamine challenge by titration method; format: functional, organism-based; conditions: Canis lupus familiaris
[9] = tested on: Rattus norvegicus; assay: Inhibition of histamine-induced acid secretion in Jcl:SD rat gastric assessed as pH of gastric perfusate at 3 mg/kg, iv pretreated for 3 mins followed by histamine.2HCl treatment measured in early time point by glass electrode method (reference value: 2); format: functional
[10] = tested on: Rattus norvegicus; assay: Inhibition of histamine-induced acid secretion in Jcl:SD rat gastric assessed as increase in pH of gastric perfusate at 3 mg/kg, iv pretreated for 3 mins followed by histamine.2HCl treatment measured up to 5 hrs by glass electrode method; format: functional, organism-based
[11] = Inhibition of CYP450 (unknown origin); format: ADME; conditions: human
[12] = tested on: Canis familiaris; assay: Inhibition of histamine-induced acid secretion in dog heidenhain pouch at 1 mg/kg, po treated 1 day after and 1 to 48 hrs before histamine.2HCl treatment measured 30 mins post histamine challenge by titration method; format: functional, organism-based; conditions: Canis lupus familiaris
[13] = Effective permeability of the compound at 10 uM at pH 7.4 after 3 hrs by PAMPA; format: physicochemical; conditions: read-out: Peff
[14] = Effective permeability of the compound at 10 uM at pH 5 after 3 hrs by PAMPA; format: physicochemical; conditions: read-out: Peff

SMILES	inhibition in vivo at 1 mg/kg [2] [%]	IC50 [3] [nM]	logD [5]	inhibition at 10 µM [6] [%]	viability at 24 h, 100 µM [7] [%]	further results
CNCc1cc(-c2cccc(F)c2)n(S(=O)(=O)c2ccc(C)cc2)c1	77	19	1.98			viability at 24 h, 30 µM [1]: 0.6%; pKa [4]: 9.31
CNCc1cc(-c2ccccc2F)n(S(=O)(=O)c2ccc(C)cc2)c1	91	34	1.56			viability at 24 h, 30 µM [1]: 8%; pKa [4]: 9.48
CNCc1cc(-c2cccnc2F)n(S(=O)(=O)c2ccoc2)c1	82	92	-1.31	59.3	77.4	
CNCc1cc(-c2cncnc2)n(S(=O)(=O)c2ccccc2)c1		410	-0.4	24.2	97.5	
CNCc1cc(-c2cccnc2F)n(S(=O)(=O)c2cccc(C#N)c2)c1	99	89	-0.36	46.7	46.7	
CNCc1cc(-c2ccccc2)n(S(=O)(=O)c2cccnc2)c1			0.73			
CNCc1cc(-c2ccccc2C(F)(F)F)n(S(=O)(=O)c2ccc(C)cc2)c1	86	88	1.94			viability at 24 h, 30 µM [1]: 0.5%
Cc1c(OCC(F)(F)F)ccnc1C[S+]([O-])c1nc2ccccc2[nH]1 (centres undefined) [LANSOPRAZOLE]						inhibition [8]: Active; pH [9]: <5; inhibition [10]: inactive; inhibition (INH) [11]: Active
CNCc1cc(-c2ccccc2)n(S(=O)(=O)c2ccc(OC)cc2)c1	95	30	1.54	89.1		inhibition [12]: Active; Papp at 3 h, 10 µM [13]: 24.6 ×10⁻⁶ cm/s; Papp at 3 h, 10 µM [14]: 19.8 ×10⁻⁶ cm/s; viability at 24 h, 30 µM [1]: 22.1%; pKa [4]: 9.48
CNCc1cc(-c2cccnc2F)n(S(=O)(=O)c2cccc(OC)c2)c1	92	28	0.1	72.8	30.6	
CNCc1cc(-c2ccccc2F)n(S(=O)(=O)c2cccnc2)c1 [VONOPRAZAN]			0.39			pKa [4]: 9.3
CNCc1cc(-c2cccnc2F)n(S(=O)(=O)c2ccco2)c1	74	59	-1.15	49.1	68.7	
CNCc1cc(-c2cccnc2F)n(S(=O)(=O)c2ccc(OC)nc2)c1	97	40	0.24	33.1	47.6	
CNCc1cc(-c2cccnc2F)n(S(=O)(=O)c2cccs2)c1	96	32	-0.69	63	74.9	
CNCc1cc(-c2ccc(F)cc2)n(S(=O)(=O)c2ccc(C)cc2)c1	86	90	2.05			viability at 24 h, 30 µM [1]: 0.4%; pKa [4]: 9.4
CNCc1cc(-c2cccnc2Cl)n(S(=O)(=O)c2ccccc2)c1	99	43	-0.1	40.9	76.3	

SMILES	inhibition in vivo at 1 mg/kg [2] [%]	IC50 [3] [nM]	logD [5]	inhibition at 10 µM [6] [%]	viability at 24 h, 100 µM [7] [%]	further results
CNCc1cc(-c2ccccc2)n(S(=O)(=O)c2ccc(C)cc2)c1	66	46 to 55	1.83			viability at 24 h, 30 µM [1]: 38.6%; pKa [4]: 9.49
CNCc1cc(-c2cnccc2C)n(S(=O)(=O)c2cccnc2)c1	-54	230	-0.51	8.3	86	
CNCc1cc(-c2cccnc2F)n(S(=O)(=O)c2ccccc2)c1	99	26	-0.09	57	59.9	
CNCc1cn(S(=O)(=O)c2cccnc2)c(-c2cccnc2F)c1C	93	220	-0.4	30.3	47.1	
CNCc1cc(-c2cccnc2Cl)n(S(=O)(=O)c2cccnc2)c1	92	120	-0.5	10.6	82.9	
CNCc1cc(-c2cccnc2F)n(S(=O)(=O)c2ccsc2)c1	98	32	-0.83	60	64	
CNCc1cc(-c2ccncc2F)n(S(=O)(=O)c2cccnc2)c1	48	290	-0.34	18.8	78.8	
CNCc1cc(-c2cccnc2C)n(S(=O)(=O)c2cccnc2)c1	-41	250	0.06		107	
CNCc1cc(-c2ccccn2)n(S(=O)(=O)c2ccccc2)c1		120	0.28	48	91.2	
CNCc1cn(S(=O)(=O)c2cccnc2)c(-c2cccnc2F)c1Cl	95	99	0.48	41.3	64.5	
CNCc1cc(-c2cccnc2F)n(S(=O)(=O)c2cccc(F)c2)c1	99	33	0.23	56.2	65.9	
CNCc1cc(-c2ccccc2C)n(S(=O)(=O)c2ccc(C)cc2)c1	92	62	2.12			viability at 24 h, 30 µM [1]: 0.3%
CNCc1cc(-c2ncccc2C)n(S(=O)(=O)c2cccnc2)c1	5	1300	0.53		88.7	
CNCc1cc(-c2cccnc2F)n(S(=O)(=O)c2ccccn2)c1	81	120	0.05		78.6	
CNCc1cc(-c2ccccc2)n(S(=O)(=O)c2ccccc2)c1	96	9.4	1.44	87.5		viability at 24 h, 30 µM [1]: 53.8%
CNCc1cc(-c2cccnc2C#N)n(S(=O)(=O)c2cccnc2)c1	48	530	-1.29	1.9	85.3	
